The text below walks through data of ChEMBL document CHEMBL5252647 (Bioorg Med Chem, 2023).

SMILES strings stand for the structures.

One test relates to HepG2. Put plainly: Antiproliferative activity against human HepG2 cells assessed as inhibition of cell growth incubated for 72 hrs by MTT assay. It is filed as functional, cell-based. The settings on record: HepG2, 72 h.
The subject of test [1] is MCF7. The test is described as follows: Antiproliferative activity against human MCF7 cells assessed as inhibition of cell growth incubated for 72 hrs by MTT assay. It is filed as functional, cell-based. Particulars: MCF7, 72 h.
The next test has as its system A549. Put plainly: Antiproliferative activity against human A549 cells assessed as inhibition of cell growth incubated for 72 hrs by MTT assay. It is filed as functional, cell-based. Particulars: A549, 72 h.
For test [2], the system named is MDA-MB-231. The test is described as follows: Antiproliferative activity against human MDA-MB-231 cells assessed as inhibition of cell growth incubated for 72 hrs by MTT assay. It is filed as functional, cell-based. The settings on record: MDA-MB-231, 72 h.
The target of test [3] is T1, Cyclin-dependent kinase 4/6 (Homo sapiens) (UniProt P11802+Q00534). Put plainly: Inhibition of CDK4/CDK6 signaling pathway in human MDA-MB-231 cells assessed as reduction of RB phosphorylation at Ser780 residue level at 1 to 8 uM incubated for 24 hrs by western blot assay. The format is cell-based. Particulars: dose 1-8 µM.
The subject of test [4] is MCF7. The test is described as follows: Antiproliferative activity against palbociclib-resistant human MCF7 cells assessed as inhibition of cell growth incubated for 72 hrs by MTT assay. The format is functional, cell-based. Particulars: MCF7, 72 h.
For test [5], the target named is Cyclin-dependent kinase 9 (Homo sapiens, UniProt P50750). Put plainly: Covalent inhibition of CDK9 (unknown origin) using histone H1 as substrate incubated for 10 mins in presence of [gamma-32P]ATP by radioactivity based kinase assay.
The target in test [6] is Cyclin-dependent kinase 6 (Homo sapiens, UniProt Q00534). The test is described as follows: Covalent inhibition of CDK6 (unknown origin) using histone H1 as substrate incubated for 10 mins in presence of [gamma-32P]ATP by radioactivity based kinase assay.
Test [7] can be described thus: Resistance factor, ratio of IC50 for palbociclib-resistant human MCF7 cells to IC50 for human MCF7 cells. The format is functional.
In test [8] the test system is MDA-MB-231. The test is described as follows: Induction of apoptosis in human MDA-MB-231 cells assessed as early apoptotic cells at 10 uM incubated for 24 hrs by annexin V-FITC/propidium iodide staining based flow cytometry analysis (reference value: 3.39%). The format is functional.
In test [9] the target is Cyclin-dependent kinase 4 (Homo sapiens, UniProt P11802). Put plainly: Covalent inhibition of CDK4 (unknown origin) using histone H1 as substrate incubated for 10 mins in presence of [gamma-32P]ATP by radioactivity based kinase assay.
Test [10] has as its system MDA-MB-231. Put plainly: Induction of apoptosis in human MDA-MB-231 cells assessed as viable cells at 10 uM incubated for 24 hrs by annexin V-FITC/propidium iodide staining based flow cytometry analysis (reference value: 96.5%). The format is functional. The settings on record: read-out: Activity.
Test [11] deals with MDA-MB-231. The test is described as follows: Induction of apoptosis in human MDA-MB-231 cells assessed as necrotic cells at 10 uM incubated for 24 hrs by annexin V-FITC/propidium iodide staining based flow cytometry analysis (reference value: 0.034%). The format is functional.
The test system of test [12] is MDA-MB-231. Put plainly: Induction of apoptosis in human MDA-MB-231 cells assessed as late apoptotic cells at 10 uM incubated for 24 hrs by annexin V-FITC/propidium iodide staining based flow cytometry analysis (reference value: 0.113%). The format is functional.
Test [13] deals with Cyclin-dependent kinase 12 (Homo sapiens, UniProt Q9NYV4). Put plainly: Covalent inhibition of CDK12 (unknown origin) using histone H1 as substrate incubated for 10 mins in presence of [gamma-32P]ATP by radioactivity based kinase assay.
Test [14] relates to MDA-MB-231. The test is described as follows: Cell cycle arrest in human MDA-MB-231 cells assessed as accumulation of cells at G0/G1 phase at 10 uM incubated for 24 hrs by propidium iodide staining based assay (reference value: 54.43%). It is filed as functional.
In test [15] the test system is MDA-MB-231. Put plainly: Cell cycle arrest in human MDA-MB-231 cells assessed as accumulation of cells at G2/M phase at 10 uM incubated for 24 hrs by propidium iodide staining based assay (reference value: 20.49%). The format is functional.
Test [16] deals with T1, Cyclin-dependent kinase 4/6 (Homo sapiens). Put plainly: Inhibition of CDK4/CDK6 signaling pathway in human MDA-MB-231 cells assessed as inhibition of CDK6 expression level at 1 to 8 uM incubated for 24 hrs by western blot assay. The format is cell-based. Particulars: dose 1-8 µM.
Test [17] has as its system MDA-MB-231. Put plainly: Cell cycle arrest in human MDA-MB-231 cells assessed as accumulation of cells at S phase at 10 uM incubated for 24 hrs by propidium iodide staining based assay (reference value: 25.09%). It is filed as functional.
In test [18] the test system is MDA-MB-231. Put plainly: Induction of apoptosis in human MDA-MB-231 cells assessed as apoptosis rate at 10 uM incubated for 24 hrs by annexin V-FITC/propidium iodide staining based flow cytometry analysis. The format is functional.
The target of test [19] is T1, Cyclin-dependent kinase 4/6 (Homo sapiens). Put plainly: Inhibition of CDK4/CDK6 signaling pathway in human MDA-MB-231 cells assessed as inhibition of CDK4 expression level at 1 to 8 uM incubated for 24 hrs by western blot assay. It is filed as cell-based. Particulars: dose 1-8 µM.

Chain of Cyclin-dependent kinase 9 (P50750 whole entry): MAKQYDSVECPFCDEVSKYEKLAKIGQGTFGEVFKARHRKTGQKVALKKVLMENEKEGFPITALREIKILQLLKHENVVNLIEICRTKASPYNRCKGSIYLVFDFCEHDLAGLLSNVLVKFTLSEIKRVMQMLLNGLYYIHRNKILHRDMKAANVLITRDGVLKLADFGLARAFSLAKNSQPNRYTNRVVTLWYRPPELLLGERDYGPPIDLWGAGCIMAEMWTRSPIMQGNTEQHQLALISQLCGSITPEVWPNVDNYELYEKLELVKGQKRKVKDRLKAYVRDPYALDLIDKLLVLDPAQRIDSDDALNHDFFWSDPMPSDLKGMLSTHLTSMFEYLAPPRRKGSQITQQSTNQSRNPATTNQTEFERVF
Chain of Cyclin-dependent kinase 12 (Q9NYV4 whole entry): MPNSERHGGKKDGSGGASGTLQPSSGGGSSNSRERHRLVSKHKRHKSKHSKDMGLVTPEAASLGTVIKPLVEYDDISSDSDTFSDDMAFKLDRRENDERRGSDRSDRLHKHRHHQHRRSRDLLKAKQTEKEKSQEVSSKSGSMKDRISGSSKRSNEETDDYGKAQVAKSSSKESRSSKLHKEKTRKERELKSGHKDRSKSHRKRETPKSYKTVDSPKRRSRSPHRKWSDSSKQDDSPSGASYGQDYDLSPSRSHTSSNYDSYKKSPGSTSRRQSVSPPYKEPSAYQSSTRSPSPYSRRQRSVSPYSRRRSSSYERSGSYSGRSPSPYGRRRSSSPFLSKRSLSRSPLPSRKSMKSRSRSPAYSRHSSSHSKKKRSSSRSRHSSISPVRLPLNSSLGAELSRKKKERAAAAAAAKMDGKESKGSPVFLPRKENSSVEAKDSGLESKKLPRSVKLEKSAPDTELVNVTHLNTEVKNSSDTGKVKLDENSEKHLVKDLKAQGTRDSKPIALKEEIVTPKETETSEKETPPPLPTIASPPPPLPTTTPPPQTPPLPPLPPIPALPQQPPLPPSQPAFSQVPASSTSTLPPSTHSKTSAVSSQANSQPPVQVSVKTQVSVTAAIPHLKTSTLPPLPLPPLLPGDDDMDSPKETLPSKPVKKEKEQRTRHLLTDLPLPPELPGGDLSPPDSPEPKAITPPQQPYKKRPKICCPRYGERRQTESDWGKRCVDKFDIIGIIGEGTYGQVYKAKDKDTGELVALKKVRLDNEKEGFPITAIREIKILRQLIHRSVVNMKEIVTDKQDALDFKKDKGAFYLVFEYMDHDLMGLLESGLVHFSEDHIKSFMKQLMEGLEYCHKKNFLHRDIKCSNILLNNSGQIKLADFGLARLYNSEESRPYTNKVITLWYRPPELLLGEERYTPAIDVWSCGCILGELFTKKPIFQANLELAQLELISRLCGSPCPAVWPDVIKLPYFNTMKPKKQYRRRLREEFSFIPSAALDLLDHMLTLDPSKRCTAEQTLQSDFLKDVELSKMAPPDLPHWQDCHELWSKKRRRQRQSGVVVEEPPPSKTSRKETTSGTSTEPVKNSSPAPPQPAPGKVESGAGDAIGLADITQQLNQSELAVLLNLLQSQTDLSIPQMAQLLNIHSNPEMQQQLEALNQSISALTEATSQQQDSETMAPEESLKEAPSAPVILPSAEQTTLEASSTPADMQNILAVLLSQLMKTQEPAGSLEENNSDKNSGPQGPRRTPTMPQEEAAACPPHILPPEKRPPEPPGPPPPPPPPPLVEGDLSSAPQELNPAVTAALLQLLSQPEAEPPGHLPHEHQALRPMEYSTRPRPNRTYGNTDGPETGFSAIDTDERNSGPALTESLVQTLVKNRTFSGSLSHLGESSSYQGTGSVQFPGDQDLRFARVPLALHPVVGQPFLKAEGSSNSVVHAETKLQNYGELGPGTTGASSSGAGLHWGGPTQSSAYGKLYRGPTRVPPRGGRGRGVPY
T1 sequence (P11802 whole entry, looked up): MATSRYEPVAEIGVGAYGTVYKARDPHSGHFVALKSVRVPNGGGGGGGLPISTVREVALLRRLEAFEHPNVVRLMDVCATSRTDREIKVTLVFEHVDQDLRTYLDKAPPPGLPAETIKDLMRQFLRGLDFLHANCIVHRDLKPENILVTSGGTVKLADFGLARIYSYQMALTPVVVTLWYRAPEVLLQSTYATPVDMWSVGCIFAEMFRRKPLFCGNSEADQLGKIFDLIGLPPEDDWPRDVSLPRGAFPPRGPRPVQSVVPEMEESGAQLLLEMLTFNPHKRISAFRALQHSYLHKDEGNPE
T1 sequence (Q00534 whole entry, looked up): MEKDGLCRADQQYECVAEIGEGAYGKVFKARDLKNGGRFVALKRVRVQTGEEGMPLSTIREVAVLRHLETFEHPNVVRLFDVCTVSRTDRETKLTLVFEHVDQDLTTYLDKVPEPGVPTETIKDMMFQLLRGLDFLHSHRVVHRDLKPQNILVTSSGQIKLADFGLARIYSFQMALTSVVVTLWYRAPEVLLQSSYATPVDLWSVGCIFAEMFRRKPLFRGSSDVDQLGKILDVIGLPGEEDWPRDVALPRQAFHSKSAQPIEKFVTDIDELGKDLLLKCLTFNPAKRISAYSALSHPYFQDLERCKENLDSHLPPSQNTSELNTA
Chain of Cyclin-dependent kinase 4 (P11802 whole entry): as the sequence (P11802 whole entry, looked up) above
Chain of Cyclin-dependent kinase 6 (Q00534 whole entry): as the sequence (Q00534 whole entry, looked up) above

Turning to `COc1ccc(/C=C/C(=O)NCCC(=O)N2CCN(c3ccc(Nc4ncc5c(C)c(C(C)=O)c(=O)n(C6CCCC6)c5n4)nc3)CC2)cc1OC`, the IC50 was 10.1 µM in the test with HepG2, above 20 µM with MCF7 [1], 11.8 µM in the test on A549 and 7.2 µM in the test on MDA-MB-231 [2].
The like results for `COc1ccc(/C=C/C(=O)NCC(=O)N2CCN(c3ccc(Nc4ncc5c(C)c(C(C)=O)c(=O)n(C6CCCC6)c5n4)nc3)CC2)cc1OC` were, in that order, 11.7 µM, 2.33 µM, 14.4 µM and 8.96 µM.
For `COc1cc(/C=C/C(=O)NCC(=O)N2CCN(c3ccc(Nc4ncc5c(C)c(C(C)=O)c(=O)n(C6CCCC6)c5n4)nc3)CC2)ccc1O` the same measures were 10.6 µM, above 20 µM, 12.1 µM and 6.29 µM.
For `COc1ccc(/C=C/C(=O)NCCCC(=O)N2CCN(c3ccc(Nc4ncc5c(C)c(C(C)=O)c(=O)n(C6CCCC6)c5n4)nc3)CC2)cc1O` the same measures were above 20 µM, 2.69 µM, above 20 µM and 8.21 µM.
For the molecule `CC(=O)c1c(C)c2cnc(Nc3ccc(N4CCN(C(=O)/C=C/C(F)(F)F)CC4)cn3)nc2n(C2CCCC2)c1=O`, the IC50 is 5.1 µM with HepG2; 0.48 µM in the test on MCF7 [1]; 1.55 µM with A549; 0.53 µM in the test on MCF7 [4]; above 1 µM in test [5]; 0.013 µM in test [6]. For the same molecule, the results for the IC50 (in test [9]; with MDA-MB-231 [2]; in [13]) were 0.018 µM, 0.51 µM and above 1 µM, respectively. Besides, the inhibition entry in [3], in test [16] and in test [19] was “Dose-Dependent Effect” each time. For the same molecule, the “Ratio IC50” value in test [7] is recorded as 1.1. Further, the Activity turned out to be 62.3% in the test on MDA-MB-231 [8]; 0.445% in the test on MDA-MB-231 [11]; 16.7% with MDA-MB-231 [12]; 68.69% in the test with MDA-MB-231 [14]; 10.14% in the test with MDA-MB-231 [15]; 21.16% in the test with MDA-MB-231 [17]. Further, in the test on MDA-MB-231 [18], the Activity came out at 79%. Further, the viability at 10 µM in the test with MDA-MB-231 [10] is 20.6%.
In the case of `C/C=C/C(=O)N1CCN(c2ccc(Nc3ncc4c(C)c(C(C)=O)c(=O)n(C5CCCC5)c4n3)nc2)CC1`, the IC50 is above 20 µM in the test on HepG2, 2.36 µM in the test with MCF7 [1], 17.3 µM in the test on A549 and 8.57 µM in the test on MDA-MB-231 [2].
For `CC(=O)c1c(C)c2cnc(Nc3ccc(N4CCN(C(=O)/C=C/c5ccccc5)CC4)cn3)nc2n(C2CCCC2)c1=O` the same measures were 11.9 µM, above 20 µM, 14.4 µM and 6.73 µM.
The like results for `COc1ccc(/C=C/C(=O)NCCCC(=O)N2CCN(c3ccc(Nc4ncc5c(C)c(C(C)=O)c(=O)n(C6CCCC6)c5n4)nc3)CC2)cc1OC` were, in that order, 13.7 µM, above 20 µM, 13 µM and above 20 µM.
The like results for `CC(=O)c1c(C)c2cnc(Nc3ccc(N4CCN(C(=O)/C=C/C5CC5)CC4)cn3)nc2n(C2CCCC2)c1=O` were, in that order, above 20 µM, 1.32 µM, 17.6 µM and 7.75 µM.
For the molecule `CC(=O)c1c(C)c2cnc(Nc3ccc(N4CCN(C(=O)/C(C#N)=C/c5ccccc5)CC4)cn3)nc2n(C2CCCC2)c1=O`, the IC50 with HepG2 was 9.11 µM; in the test on MCF7 [1], 0.42 µM; with A549, 9.57 µM; in test [5], above 1 µM; in test [6] it was 0.019 µM; in [9], 0.025 µM. For the same molecule, the IC50 in the test with MDA-MB-231 [2] is 5.68 µM; in [13] it was above 1 µM. In addition, the Activity is listed as 52.1% in the test with MDA-MB-231 [8]; 0.425% with MDA-MB-231 [11]; 11% in the test with MDA-MB-231 [12]; 63.83% with MDA-MB-231 [14]; 11.59% in the test on MDA-MB-231 [15]; 24.58% with MDA-MB-231 [17]. The Activity with MDA-MB-231 [18] stood at 63.1%. Also, the viability at 10 µM with MDA-MB-231 [10] was 36.5%.
Turning to `C=CC(=O)N1CCN(c2ccc(Nc3ncc4c(C)c(C(C)=O)c(=O)n(C5CCCC5)c4n3)nc2)CC1`, the IC50 in the test on HepG2 was 9.55 µM; in the test with MCF7 [1], 0.62 µM; in the test with A549, 9.75 µM; in [5] it was above 1 µM; in [6], 0.015 µM; in [9], 0.023 µM. In addition, the IC50 in the test on MDA-MB-231 [2] was 5.26 µM; in [13], 0.89 µM. Also, the Activity is given as 40.3% in the test with MDA-MB-231 [8]; 0.689% with MDA-MB-231 [11]; 15.2% with MDA-MB-231 [12]; 60.21% in the test on MDA-MB-231 [14]; 13.78% with MDA-MB-231 [15]; 26.01% in the test on MDA-MB-231 [17]. For the same molecule, the Activity in the test with MDA-MB-231 [18] is 55.5%. The viability at 10 µM in the test on MDA-MB-231 [10] was 43.8%.
For the molecule `CC(=O)c1c(C)c2cnc(Nc3ccc(N4CCNCC4)cn3)nc2n(C2CCCC2)c1=O` [PALBOCICLIB], the IC50 in the test with HepG2 was found to be 9.92 µM; in the test with MCF7 [1] it was 0.78 µM; in the test on A549, 8.07 µM; with MCF7 [4], 5.81 µM; in the test on MDA-MB-231 [2], 5.62 µM. In addition, the Activity is listed as 47.6% with MDA-MB-231 [8]; 1.47% with MDA-MB-231 [11]; 26.1% with MDA-MB-231 [12]; 71.23% with MDA-MB-231 [14]; 11.78% in the test with MDA-MB-231 [15]; 16.99% in the test with MDA-MB-231 [17]. Besides, the Activity in the test with MDA-MB-231 [18] is 73.7%. Besides, the viability at 10 µM with MDA-MB-231 [10] was found to be 24.8%.
With `COC(=O)/C=C/CN1CCN(c2ccc(Nc3ncc4c(C)c(C(C)=O)c(=O)n(C5CCCC5)c4n3)nc2)CC1`, the IC50 was above 20 µM in the test with HepG2, above 20 µM in the test on MCF7 [1], 16.5 µM with A549 and above 20 µM with MDA-MB-231 [2].
As to `COc1cc(/C=C/C(=O)N2CCN(c3ccc(Nc4ncc5c(C)c(C(C)=O)c(=O)n(C6CCCC6)c5n4)nc3)CC2)ccc1O`, the IC50 is above 20 µM in the test on HepG2, above 20 µM in the test with MCF7 [1], above 20 µM in the test with A549 and 8.88 µM with MDA-MB-231 [2].
Take `COc1ccc(/C=C/C(=O)N2CCN(c3ccc(Nc4ncc5c(C)c(C(C)=O)c(=O)n(C6CCCC6)c5n4)nc3)CC2)cc1OC`: the IC50 in the test on HepG2 is above 20 µM; with MCF7 [1], 1.85 µM; with A549, 16.1 µM; in the test on MDA-MB-231 [2], above 20 µM.
